Experimental data taken from ChEMBL document CHEMBL2163253, “Identification and preliminary characterization of a potent, safe, and orally efficacious inhibitor of acyl-CoA:diacylglycerol acyltransferase 1” (J Med Chem, 2012).
Calls of active or inactive are those of the source. The rule behind the calls is not given here.

Assays:
[1] = Stability in human liver microsomes assessed as parent compound remaining measured after 60 mins; assay type: ADME, Microsome; conditions: read-out: Stability
[2] = target: T1, Diacylglycerol O-acyltransferase 1 (Homo sapiens, UniProt O75907); experiment: biochemical
T1 sequence (O75907 whole entry): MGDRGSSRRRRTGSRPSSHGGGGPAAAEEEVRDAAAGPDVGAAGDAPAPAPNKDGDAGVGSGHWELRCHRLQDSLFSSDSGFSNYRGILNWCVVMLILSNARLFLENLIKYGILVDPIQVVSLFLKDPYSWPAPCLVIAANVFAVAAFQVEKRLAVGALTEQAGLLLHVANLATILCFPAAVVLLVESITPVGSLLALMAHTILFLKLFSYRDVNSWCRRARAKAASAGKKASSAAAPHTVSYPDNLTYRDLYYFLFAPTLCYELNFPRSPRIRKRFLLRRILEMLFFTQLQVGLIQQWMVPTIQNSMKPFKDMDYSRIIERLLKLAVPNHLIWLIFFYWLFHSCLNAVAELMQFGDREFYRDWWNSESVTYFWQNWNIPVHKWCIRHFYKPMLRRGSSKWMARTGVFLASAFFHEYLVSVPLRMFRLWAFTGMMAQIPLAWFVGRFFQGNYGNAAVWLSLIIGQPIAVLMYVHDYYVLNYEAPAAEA
Description: Inhibition of N-terminal His6-tagged human recombinant DGAT1 expressed in insect cell membrane using [1-14C]decanoyl-CoA substrate by phospholipid flash plate assay

Mustela putorius furo = species: Mustela putorius furo; experiment: Toxicity in ferret assessed as induction of emesis; assay type: organism-based; conditions: in vivo
[3] = target: T2, Diacylglycerol O-acyltransferase 2 (Homo sapiens, UniProt Q96PD7); experiment: Inhibition of human recombinant DGAT2 expressed in insect cell membrane using [1-14C]decanoyl-CoA substrate by phospholipid flash plate assay
T2 sequence (Q96PD7 whole entry): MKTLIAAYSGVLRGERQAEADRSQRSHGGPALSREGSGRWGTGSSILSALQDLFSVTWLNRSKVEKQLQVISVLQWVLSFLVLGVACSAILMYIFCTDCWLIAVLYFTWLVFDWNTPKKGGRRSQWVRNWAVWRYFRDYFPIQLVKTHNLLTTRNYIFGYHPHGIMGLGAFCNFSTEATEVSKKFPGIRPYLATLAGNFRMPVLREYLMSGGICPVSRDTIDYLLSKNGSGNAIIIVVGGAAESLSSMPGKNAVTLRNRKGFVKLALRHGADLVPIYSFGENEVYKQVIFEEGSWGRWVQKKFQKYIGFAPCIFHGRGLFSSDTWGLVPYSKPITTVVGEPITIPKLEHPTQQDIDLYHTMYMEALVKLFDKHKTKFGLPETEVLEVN

Mus musculus [4] = experiment: Reduction in serum triglyceride level in overnight fasted DIO mouse model at 0.3 mg/kg, po administered as single dose 1 hr before and for 5 hrs after oral corn oil bolus challenge; assay type: functional, organism-based; set-up: dose 0.3 mg/kg
[5] = Cmax in mouse at 10 mg/kg, po administered as single dose; assay type: ADME, organism-based; set-up: dose 10 mg/kg, route oral; conditions: in vivo
[6] = Cmax in rat; assay type: ADME, organism-based; conditions: plasma
[7] = Stability in mouse liver microsomes assessed as parent compound remaining measured after 60 mins; assay type: ADME, Microsome; conditions: read-out: Stability
Mus musculus [8] = experiment: Reduction in serum triglyceride level in CD1 mouse postprandial hyperlipidemia model administered orally as single dose 1 hr before oral corn oil bolus challenge and measured after 2 hrs; assay type: functional, organism-based
[9] = Toxicity in dog Purkinje fibers assessed as prolongation of APD90 by Purkinje fibers repolarization assay; assay type: tissue-based, Canis lupus familiaris, Purkinje fiber; conditions: in vitro
[10] = Cmax in rat at 5 mg/kg, po administered as single dose; assay type: ADME, organism-based; set-up: dose 5 mg/kg, route oral; conditions: in vivo
Canis familiaris [11] = experiment: AUC in dog dosed orally for 2 weeks assessed as terminal exposure; conditions: in vivo, po, 336 h
[12] = Plasma concentration in CD1 mouse postprandial hyperlipidemia model at 3 mg/kg, po administered as single dose 1 hr before oral corn oil bolus challenge and measured after 2 hrs; assay type: ADME, organism-based; set-up: dose 3 mg/kg, route oral
[13] = Terminal half life in rat at 5 mg/kg, iv administered as single dose; assay type: ADME, organism-based; set-up: dose 5 mg/kg, route intravenous; conditions: in vivo, read-out: beta t1/2 (converted)
Mus musculus [14] = experiment: Reduction in serum triglyceride level in CD1 mouse postprandial hyperlipidemia model at 0.3 mg/kg, po administered as single dose 1 hr before oral corn oil bolus challenge and measured after 2 hrs; assay type: functional; set-up: scale not given: the % may be the effect or the level left
Canis familiaris [15] = species: Canis familiaris; experiment: Toxicity in dog assessed as incidence of hemodynamic effect measured at highest compound concentration; assay type: organism-based, Canis lupus familiaris; conditions: in vivo
Rattus norvegicus [16] = species: Rattus norvegicus; experiment: Toxicity in rat assessed as changes in gastrointestinal transit measured at highest compound concentration; assay type: organism-based; conditions: in vivo
[17] = Efflux ratio in human Caco2 cells at 5 uM at pH 7.4; assay type: ADME, cell-based; conditions: Caco-2, pH 7.4
[18] = Cmax in dog; assay type: ADME, organism-based, Canis lupus familiaris; conditions: plasma
[19] = Efflux ratio in human Caco2 cells at 0.5 uM at pH 7.4; assay type: ADME, cell-based; conditions: Caco-2, pH 7.4
[20] = target: Voltage-gated inwardly rectifying potassium channel KCNH2 (Homo sapiens, UniProt Q12809); experiment: Inhibition of human ERG by manual patch clamp assay
[21] = Volume of distribution at steady state in mouse at 10 mg/kg, iv administered as single dose; assay type: ADME, organism-based; set-up: dose 10 mg/kg, route intravenous; conditions: in vivo, read-out: Vdss
Rattus norvegicus [22] = experiment: Toxicity in female rat assessed as toxicity symptoms at terminal compound concentration dosed orally for 2 weeks; assay type: organism-based; conditions: in vivo, po, 336 h
[23] = Oral bioavailability in rat at 5 mg/kg administered as single dose; assay type: ADME, organism-based; conditions: in vivo
[24] = Terminal half life in mouse at 10 mg/kg, po administered as single dose; assay type: ADME, organism-based; set-up: dose 10 mg/kg, route oral; conditions: in vivo, read-out: beta t1/2 (converted)
[25] = target: T1, Diacylglycerol O-acyltransferase 1; experiment: Inhibition of human DGAT1 expressed in human HeLa cells assessed as reduction in triglyceride synthesis; assay type: cell-based
[26] = Volume of distribution at steady state in rat at 5 mg/kg, iv administered as single dose; assay type: ADME, organism-based; set-up: dose 5 mg/kg, route intravenous; conditions: in vivo, read-out: Vdss
Rattus norvegicus [27] = experiment: AUC in female rat dosed orally for 2 weeks assessed as terminal exposure; conditions: in vivo, po, 336 h
[28] = target: T3, Diacylglycerol O-acyltransferase 1 (Mus musculus, UniProt Q9Z2A7); experiment: Inhibition of mouse DGAT1 using [1-14C]decanoyl-CoA substrate by phospholipid flash plate assay
T3 sequence (Q9Z2A7 whole entry): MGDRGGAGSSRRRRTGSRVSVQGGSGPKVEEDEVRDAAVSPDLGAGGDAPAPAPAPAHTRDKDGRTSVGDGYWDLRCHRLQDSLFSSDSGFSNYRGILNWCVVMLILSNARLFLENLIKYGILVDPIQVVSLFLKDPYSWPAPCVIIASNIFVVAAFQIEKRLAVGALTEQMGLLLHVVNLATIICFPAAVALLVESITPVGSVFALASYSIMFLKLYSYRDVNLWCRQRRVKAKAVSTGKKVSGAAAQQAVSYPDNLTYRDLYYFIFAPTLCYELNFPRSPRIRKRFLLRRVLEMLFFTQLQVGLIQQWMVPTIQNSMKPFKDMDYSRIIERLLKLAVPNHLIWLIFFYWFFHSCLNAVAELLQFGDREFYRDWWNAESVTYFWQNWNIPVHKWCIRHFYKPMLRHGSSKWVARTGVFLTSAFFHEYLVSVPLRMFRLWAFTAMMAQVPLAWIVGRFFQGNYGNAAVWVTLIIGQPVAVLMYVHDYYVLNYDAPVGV

[29] = Permeability in human Caco2 cells at 0.5 uM at pH 7.4; assay type: ADME, cell-based; conditions: Caco-2, pH 7.4, read-out: permeability
[30] = Plasma concentration in CD1 mouse postprandial hyperlipidemia model at 0.03 mg/kg, po administered as single dose 1 hr before oral corn oil bolus challenge and measured after 2 hrs; assay type: ADME, organism-based; set-up: dose 0.03 mg/kg, route oral
[31] = AUC in rat at 5 mg/kg, po administered as single dose; assay type: ADME, organism-based; set-up: dose 5 mg/kg, route oral; conditions: plasma
[32] = Oral bioavailability in mouse at 10 mg/kg administered as single dose; assay type: ADME, organism-based; conditions: in vivo
[33] = Terminal half life in rat at 5 mg/kg, po administered as single dose; assay type: ADME, organism-based; set-up: dose 5 mg/kg, route oral; conditions: in vivo, read-out: beta t1/2 (converted)
[34] = Plasma clearance in mouse at 10 mg/kg, iv administered as single dose; assay type: ADME, organism-based; set-up: dose 10 mg/kg, route intravenous
Canis familiaris [35] = experiment: Toxicity in dog assessed as toxicity symptoms at terminal compound concentration dosed orally for 2 weeks; assay type: organism-based, Canis lupus familiaris; conditions: in vivo, po, 336 h
[36] = AUC in mouse at 10 mg/kg, po administered as single dose; assay type: ADME, organism-based; set-up: dose 10 mg/kg, route oral; conditions: plasma
[37] = Plasma clearance in rat at 5 mg/kg, iv administered as single dose; assay type: ADME, organism-based; set-up: dose 5 mg/kg, route intravenous
Mus musculus [38] = experiment: Reduction in serum triglyceride level in CD1 mouse postprandial hyperlipidemia model at 0.03 mg/kg, po administered as single dose 1 hr before oral corn oil bolus challenge and measured after 2 hrs; assay type: functional; set-up: scale not given: the % may be the effect or the level left
[39] = Plasma concentration in CD1 mouse postprandial hyperlipidemia model at 0.3 mg/kg, po administered as single dose 1 hr before oral corn oil bolus challenge and measured after 2 hrs; assay type: ADME, organism-based; set-up: dose 0.3 mg/kg, route oral
[40] = Terminal half life in mouse at 10 mg/kg, iv administered as single dose; assay type: ADME, organism-based; set-up: dose 10 mg/kg, route intravenous; conditions: in vivo, read-out: beta t1/2 (converted)
Mus musculus [41] = experiment: Reduction in serum triglyceride level in CD1 mouse postprandial hyperlipidemia model at 3 mg/kg, po administered as single dose 1 hr before oral corn oil bolus challenge and measured after 2 hrs; assay type: functional; set-up: scale not given: the % may be the effect or the level left

Chain of Voltage-gated inwardly rectifying potassium channel KCNH2 (Q12809 whole entry): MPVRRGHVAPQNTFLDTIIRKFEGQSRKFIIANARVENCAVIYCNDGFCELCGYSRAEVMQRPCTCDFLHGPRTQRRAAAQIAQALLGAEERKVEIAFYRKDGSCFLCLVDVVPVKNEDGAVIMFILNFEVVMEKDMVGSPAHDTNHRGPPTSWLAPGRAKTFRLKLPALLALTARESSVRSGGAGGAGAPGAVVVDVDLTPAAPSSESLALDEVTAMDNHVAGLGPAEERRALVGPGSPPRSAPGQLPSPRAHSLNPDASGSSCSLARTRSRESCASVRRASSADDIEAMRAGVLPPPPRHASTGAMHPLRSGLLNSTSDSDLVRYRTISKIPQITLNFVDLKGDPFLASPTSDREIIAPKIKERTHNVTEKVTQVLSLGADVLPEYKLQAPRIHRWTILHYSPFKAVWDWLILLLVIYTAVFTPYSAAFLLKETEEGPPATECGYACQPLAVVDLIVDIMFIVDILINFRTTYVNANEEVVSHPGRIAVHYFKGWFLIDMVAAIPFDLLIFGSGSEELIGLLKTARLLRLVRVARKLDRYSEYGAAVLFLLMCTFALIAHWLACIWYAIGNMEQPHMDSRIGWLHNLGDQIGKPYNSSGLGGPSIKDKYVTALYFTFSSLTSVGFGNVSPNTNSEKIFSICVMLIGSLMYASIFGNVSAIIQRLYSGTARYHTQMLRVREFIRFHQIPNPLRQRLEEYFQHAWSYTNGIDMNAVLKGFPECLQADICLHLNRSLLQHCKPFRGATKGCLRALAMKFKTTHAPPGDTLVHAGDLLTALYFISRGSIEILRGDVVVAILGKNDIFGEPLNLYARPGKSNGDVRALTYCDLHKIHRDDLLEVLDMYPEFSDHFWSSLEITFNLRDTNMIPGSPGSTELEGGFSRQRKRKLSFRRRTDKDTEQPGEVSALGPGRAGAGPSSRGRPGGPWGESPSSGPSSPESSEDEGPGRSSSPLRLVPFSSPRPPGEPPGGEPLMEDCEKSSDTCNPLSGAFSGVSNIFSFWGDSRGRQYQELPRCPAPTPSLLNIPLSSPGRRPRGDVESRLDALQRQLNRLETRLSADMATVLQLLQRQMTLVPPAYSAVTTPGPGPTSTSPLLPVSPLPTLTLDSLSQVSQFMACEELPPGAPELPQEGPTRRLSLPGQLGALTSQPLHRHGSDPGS

Structure (SMILES): CC(C)(C)c1ccc(-c2cnc3ccnn3c2N)cc1
- remaining at 1 h [1]: 16%

Structure (SMILES): Nc1c(-c2ccc(C(=O)O)cc2)cnc2ccnn12
- IC50 [2]: > 10 µM
- remaining at 1 h [1]: 100%

Structure (SMILES): CC(C)c1ccc(-c2cnc3ccnn3c2N)cc1
- remaining at 1 h [1]: < 5%

Structure (SMILES): CS(=O)(=O)c1ccc(-c2cnc3ccnn3c2N)cc1
- IC50 [2]: > 10 µM
- remaining at 1 h [1]: 91%

Structure (SMILES): CC(C)(C)c1ccc(-c2cncnc2N)cc1
- remaining at 1 h [1]: 73%

Structure (SMILES): Nc1c(-c2ccc([C@H]3CC[C@H](CC(=O)O)CC3)cc2)cnc2ccnn12
- Activity (Mustela putorius furo): Non-toxic
- IC50 [3]: > 10 µM
- Activity (Mus musculus [4]): Active
- Cmax [5]: 17400 ng/mL
- Cmax [6]: 30200 ng/mL
- remaining at 1 h [7]: 99%
- Activity (Mus musculus [8]): Dose-dependent effect
- Activity [9]: Non-toxic
- Cmax [10]: 9300 ng/mL
- AUC (Canis familiaris [11]): 789 µg·h/mL
- concentration at 2 h [12]: 3100 ng/mL
- half-life [13]: 3.8 h
- Activity (Mus musculus [14]): 60%
- Activity (Canis familiaris [15]): Non-toxic
- Activity (Rattus norvegicus [16]): Non-toxic
- efflux ratio at 5 µM [17]: 1.1
- Cmax [18]: 20500 ng/mL
- efflux ratio at 0.5 µM [19]: 1.4
- IC50 [2]: 0.008 µM
- IC50 [20]: > 300 µM
- Vd [21]: 0.3 L/kg
- Activity (Rattus norvegicus [22]): Non-toxic
- bioavailability [23]: 91%
- half-life [24]: 5.1 h
- IC50 [25]: 0.078 µM
- Vd [26]: 0.3 L/kg
- AUC (Rattus norvegicus [27]): 3455 µg·h/mL
- IC50 [28]: 0.008 µM
- Papp at 0.5 µM [29]: 84 ×10⁻⁶ cm/s
- concentration at 2 h [30]: 33 ng/mL
- AUC [31]: 130 µg·h/mL
- bioavailability [32]: 78%
- half-life [33]: 5.6 h
- remaining at 1 h [1]: 97%
- clearance [34]: 1.67 mL/min/kg
- Activity (Canis familiaris [35]): Non-toxic
- AUC [36]: 151 µg·h/mL
- clearance [37]: 0.833 mL/min/kg
- Activity (Mus musculus [38]): 40%
- concentration at 2 h [39]: 360 ng/mL
- half-life [40]: 4.6 h
- Activity (Mus musculus [41]): 90%

Structure (SMILES): Nc1c(-c2ccc(Br)cc2)cnc2ccnn12
- remaining at 1 h [1]: < 5%

Structure (SMILES): Nc1c(-c2ccccc2)cnc2ccnn12
- IC50 [2]: > 10 µM

Structure (SMILES): Nc1c(-c2ccccc2Br)cnc2ccnn12
- IC50 [2]: > 10 µM
- remaining at 1 h [1]: 69%

Structure (SMILES): Nc1c(-c2cccc(Br)c2)cnc2ccnn12
- IC50 [2]: > 10 µM
- remaining at 1 h [1]: < 5%
